Experimental data: patent EP0361645B1, “Organic hydrazine derivatives for pharmaceutical use” (ROHM AND HAAS COMPANY, priority 1988, dated 1990)
Read-outs that look alike come from different tables or passages of the source.

Target: T1, ecdysone receptor (Drosophila melanogaster, UniProt P34021)
T1 construct: endogenous in cells; host or cells: Drosophila Kr (Kc) cells, undiluted cytosolic extract
T1 sequence (P34021 1-878): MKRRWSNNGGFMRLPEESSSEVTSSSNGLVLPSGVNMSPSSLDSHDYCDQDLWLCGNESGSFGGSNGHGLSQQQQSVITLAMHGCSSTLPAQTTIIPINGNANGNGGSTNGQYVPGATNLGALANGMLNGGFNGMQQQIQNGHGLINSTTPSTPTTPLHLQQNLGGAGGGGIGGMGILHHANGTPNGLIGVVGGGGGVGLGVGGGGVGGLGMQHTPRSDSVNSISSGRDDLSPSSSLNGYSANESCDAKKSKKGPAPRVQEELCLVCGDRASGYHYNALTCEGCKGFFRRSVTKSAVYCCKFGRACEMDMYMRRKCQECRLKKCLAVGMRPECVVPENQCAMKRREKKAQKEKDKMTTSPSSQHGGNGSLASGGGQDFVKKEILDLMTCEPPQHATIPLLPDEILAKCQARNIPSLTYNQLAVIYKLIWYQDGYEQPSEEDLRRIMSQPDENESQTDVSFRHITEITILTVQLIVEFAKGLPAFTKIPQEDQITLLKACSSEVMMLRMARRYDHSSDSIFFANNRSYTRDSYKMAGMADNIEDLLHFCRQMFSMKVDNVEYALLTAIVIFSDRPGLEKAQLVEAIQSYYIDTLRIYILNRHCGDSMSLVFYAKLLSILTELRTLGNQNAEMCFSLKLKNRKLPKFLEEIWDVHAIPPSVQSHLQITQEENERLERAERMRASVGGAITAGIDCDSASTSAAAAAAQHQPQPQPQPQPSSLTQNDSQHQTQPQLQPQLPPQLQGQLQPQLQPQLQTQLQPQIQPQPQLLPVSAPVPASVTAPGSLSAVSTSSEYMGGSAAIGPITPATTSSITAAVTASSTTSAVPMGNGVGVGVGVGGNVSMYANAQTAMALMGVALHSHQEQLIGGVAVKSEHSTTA
T1 sequence (P20153 1-508 partner): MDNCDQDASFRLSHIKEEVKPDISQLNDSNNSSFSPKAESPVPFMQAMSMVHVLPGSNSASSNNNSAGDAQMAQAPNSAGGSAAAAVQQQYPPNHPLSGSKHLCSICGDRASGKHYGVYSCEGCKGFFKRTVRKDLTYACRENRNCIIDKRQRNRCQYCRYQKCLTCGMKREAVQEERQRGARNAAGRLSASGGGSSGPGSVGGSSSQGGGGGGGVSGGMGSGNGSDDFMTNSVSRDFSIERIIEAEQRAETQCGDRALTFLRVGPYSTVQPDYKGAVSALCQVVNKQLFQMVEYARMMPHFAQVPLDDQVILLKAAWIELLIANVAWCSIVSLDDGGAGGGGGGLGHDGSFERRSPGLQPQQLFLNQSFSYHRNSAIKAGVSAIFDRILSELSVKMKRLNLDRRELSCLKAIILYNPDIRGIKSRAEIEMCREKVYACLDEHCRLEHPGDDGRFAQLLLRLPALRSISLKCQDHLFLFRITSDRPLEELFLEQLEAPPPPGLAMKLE
Test: ^3H-ponasterone A binding to / displacement from Kr cell cytosolic receptor extracts
Procedure: The invention will now be further described by way of exemplification and by reference to the drawings in which; • Figure 1. Both 20-hydroxyecdysone and Example No. 3 induce process elaboration (A) and inhibition of cell proliferation (B) in Kr cells in a dose-dependent manner. Initial cell density was 2 X 10^6 cells/ml; after incubation of 1 ml aliquots of the cells with the compound for 48 hours the cells were triturated gently and the percentage of cells responding (with processes longer than approximately 17 um, see Cherbas et al. 189 Wilhelm Roux's Arch. 1 (1980)) and total cell density was determined by hemocytom- eter counting, relative to ethanol (1 ul)-treated controls. Determinations were in triplicate for each dose. […] Induction of acetylcholinesterase by varying concentrations of 20-hydroxyecdysone and Example No. 3. Kr cells at an initial density of 3 X 10^6 cells/ml (10 ml per sample) were incubated with the agonist for three days. After harvesting, by centrifugation at 3000 X g, the cell pellets were washed with Robb's Drosophila saline (18, 2 X 5 ml) at 4 ° C, then lysed by sonication in 1 ml of phosphate buffer (pH 7.4, I = 0.1 M) containing 0.5 M NaCI, 0.25 M EDTA and 0.5% TRITON? X-100. See Cherbas, 197 Science 275 (1977). Triton is a registered trademark of Rohm and Haas Company for a alkylaryl polyoxyethylene glycol surfactant. After centrifugation at 16,000 X g, the supernatants were assayed for acetylcholinesterase activity by an adaptation of the method of Ellman et al., 7 Biochem. Pharmacol. 88 (1961), by subtracting out any 412 nm absorbance observed in incubations in the presence of 2 X 10-5 eserine sulfate. Thus reaction mixtures contained 50 ul of enzyme extract, 20 ul eserine (blank tubes only) and 1.0 ml of 0.5 mM acetylthiocholine, 0.3 mM dithiobisnitrobenzoic acid in phosphate buffer (pH 7.4, I = 0.1 M). Incubations were at 25 ° C for two hours; reactions in active tubes were terminated by addition of eserine. Absorbance at 412 nm was then measured. Protein concentration in extracts was measured by the Biorad method. […] Scatchard plot of ^3H-ponasterone A binding to Kr cell cytosolic receptor extracts in the presence of differing concentrations of Example No. 3. Cytosolic extract preparation and ecdysteroid receptor assays were essentially as described in Sage, 111 Meth. in Enzymol. 458 (1985). Example No. 3 was added in 1 ul DMSO to 50 ul of radioligand in 10 mM Tris buffer (pH 7.2) and 50 ul of undiluted cytosol extract. After incubation overnight at 0.5 ° C, bound label was separated from free by addition of 300 ul 1% HCI-washed charcoal (Sigma) and 0.1% Dextran T70 (Pharmacia) in Tris buffer, centrifugation (13,000 X g, 3 min, 4 ° C) and liquid scintillation counting of a 300 ul aliquot of the supernatant in 15 ml Hydrofluor (National Diagnostics). Points are means of duplicate determinations. […] Relative ability of 20 hydroxyecdysone and Example No. 3 to displace ^3H-ponasterone A from cytosolic receptor extracts. Conditions were as in Figure 3 except that only 0.5 nM ponasterone A was used. • Points are means of duplicate determinations. For 20-hydroxyecdysone EC50 = 0.1 uM while for Example No. 3 EC50 = 3.0 uM. Control binding = 10 femtomoles ^3H-ponasterone A bound per mg cytosol protein. • Figure 4. Effects of 10 ppm Example No. 3 administered in artificial diet to newly ecdysed fourth instar (L4) M. sexta, monitoring (A)immunoreactive hemolymph ecdysteroid titers and (B)weight gain. Ecdysteroid titers were measured by a radioimmunoassay adapted from Warren et al., 40 Experientia 393 (1984) with Protein A-Staph. aureus suspension (Sigma) used as the reagent to separate bound from free ligand. The antiecdysone antiserum was formed by reaction of 20-hydroxyecdysone with carboxymethox- yamine resulting in the corresponding ecdysteroid 6-oxime acid. […] All samples were diluted appropriately in borate buffer pH 8.0 and assayed in duplicate. […]

| SMILES | IC50 (0.5 nM ponasterone A (Figure 3B legend), read-out: EC50, displacement of ^3H-ponasterone A from cytosolic receptor extracts) | fold greater apparent affinity than Example No. 3 (ratio of IC50) | IC50 | mode of inhibition of ^3H-ponasterone A binding (Kd increases, Bmax remains the same) | fold lower apparent binding affinity than 20-hydroxyecdysone (Kr cell extracts) |
| --- | --- | --- | --- | --- | --- |
| CC(C)(O)CC[C@@H](O)[C@](C)(O)[C@H]1CC[C@@]2(O)C3=CC(=O)[C@@H]4C[C@@H](O)[C@@H](O)C[C@]4(C)[C@H]3CC[C@]12C [20-hydroxyecdysone, reference compound] | 100 nM | 30 fold | – | – | – |
| CC(C)(C)N(NC(=O)c1ccccc1)C(=O)c1ccccc1 [Example No. 3, N'-t-butyl-N,N'-dibenzoylhydrazine] | – | – | 3000 nM | competitive mode of inhibition | 30 fold |
